From the kinase profiling compilation of Christmann-Franck et al. (2016)
Values joined by “and” are separate entries in the source; they are usually repeats but may differ in a detail not shown here. Equal entries are not always repeated.

Experiments:
Experiment in all cases: KINOMEscan competition binding
Settings in all cases: compound 10.0 µM
ACVRL1 (human) = ACVRL1 (human) (UniProt P37023)
CDK3 (human) = CDK3 (human) (UniProt Q00526)
PRPF4B (human) = PRPF4B (human) (UniProt Q13523)
NUAK2 (human) = NUAK2 (human) (UniProt Q9H093)
LTK (human) = LTK (human) (UniProt P29376)
ULK3 (human) = ULK3 (human) (UniProt Q6PHR2)
NLK (human) = NLK (human) (UniProt Q9UBE8)
CDC42BPB (human) = CDC42BPB (human) (UniProt Q9Y5S2)
PRKACA (human) = PRKACA (human) (UniProt P17612)
LYN (human) = LYN (human) (UniProt P07948)
MAP4K3 (human) = MAP4K3 (human) (UniProt Q8IVH8)
ITK (human) = ITK (human) (UniProt Q08881)
RPS6KA1 KD1 (human) = RPS6KA1 KD1 (human) (UniProt Q15418)
EGFR (human) = EGFR (human) (UniProt P00533)
MET (human) = MET (human) (UniProt P08581)
DYRK2 (human) = DYRK2 (human) (UniProt Q92630)
MARK2 (human) = MARK2 (human) (UniProt Q7KZI7)
MKNK1 (human) = MKNK1 (human) (UniProt Q9BUB5)
NEK7 (human) = NEK7 (human) (UniProt Q8TDX7)
MAPK9 (human) = MAPK9 (human) (UniProt P45984)
RIOK3 (human) = RIOK3 (human) (UniProt O14730)
MAPKAPK2 (human) = MAPKAPK2 (human) (UniProt P49137)
BTK (human) = BTK (human) (UniProt Q06187)
HIPK1 (human) = HIPK1 (human) (UniProt Q86Z02)
CDK8 (human) = CDK8 (human) (UniProt P49336)
[1] = target: TYK2 JH2 pseudokinase (human) (UniProt P29597)
GAK (human) = GAK (human) (UniProt O14976)
FGFR3 (human) = FGFR3 (human) (UniProt P22607)
CASK (human) = CASK (human) (UniProt O14936)
PIP4K2B (human) = PIP4K2B (human) (UniProt P78356)
ERN1 (human) = ERN1 (human) (UniProt O75460)
CDK7 (human) = CDK7 (human) (UniProt P50613)
BRSK2 (human) = BRSK2 (human) (UniProt Q8IWQ3)
PIM1 (human) = PIM1 (human) (UniProt P11309)
FYN (human) = FYN (human) (UniProt P06241)
BMPR1A (human) = BMPR1A (human) (UniProt P36894)
KIT (human) = KIT (human) (UniProt P10721)
EPHA6 (human) = EPHA6 (human) (UniProt Q9UF33)
RPS6KB1 (human) = RPS6KB1 (human) (UniProt P23443)
DDR1 (human) = DDR1 (human) (UniProt Q08345)

Sequence of KIT (human) (P10721 whole entry, looked up): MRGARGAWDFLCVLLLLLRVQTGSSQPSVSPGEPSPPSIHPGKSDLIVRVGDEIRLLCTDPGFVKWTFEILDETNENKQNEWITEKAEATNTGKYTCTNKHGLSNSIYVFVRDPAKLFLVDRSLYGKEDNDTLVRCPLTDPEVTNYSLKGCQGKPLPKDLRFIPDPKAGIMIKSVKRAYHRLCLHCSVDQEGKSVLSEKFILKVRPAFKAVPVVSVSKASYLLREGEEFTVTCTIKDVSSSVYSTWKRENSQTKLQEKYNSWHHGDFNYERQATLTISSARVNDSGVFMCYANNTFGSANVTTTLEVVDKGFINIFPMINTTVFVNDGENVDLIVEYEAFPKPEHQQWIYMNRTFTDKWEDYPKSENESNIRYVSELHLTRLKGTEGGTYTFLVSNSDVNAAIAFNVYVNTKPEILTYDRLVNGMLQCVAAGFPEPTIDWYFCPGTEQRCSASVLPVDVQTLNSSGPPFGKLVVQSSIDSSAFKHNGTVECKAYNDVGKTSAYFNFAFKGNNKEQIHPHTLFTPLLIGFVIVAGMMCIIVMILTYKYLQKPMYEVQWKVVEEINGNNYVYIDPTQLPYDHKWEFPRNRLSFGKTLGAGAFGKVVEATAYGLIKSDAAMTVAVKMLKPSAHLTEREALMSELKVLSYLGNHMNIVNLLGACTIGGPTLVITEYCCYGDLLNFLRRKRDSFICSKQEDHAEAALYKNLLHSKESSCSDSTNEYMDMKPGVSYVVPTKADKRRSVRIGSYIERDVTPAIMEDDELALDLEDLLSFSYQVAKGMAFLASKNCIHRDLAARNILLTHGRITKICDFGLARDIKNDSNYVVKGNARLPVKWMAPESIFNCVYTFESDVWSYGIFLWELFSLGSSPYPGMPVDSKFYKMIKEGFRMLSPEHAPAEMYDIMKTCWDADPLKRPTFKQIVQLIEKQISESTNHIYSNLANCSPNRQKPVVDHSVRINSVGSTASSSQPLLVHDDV
Sequence of RIOK3 (human) (O14730 whole entry, looked up): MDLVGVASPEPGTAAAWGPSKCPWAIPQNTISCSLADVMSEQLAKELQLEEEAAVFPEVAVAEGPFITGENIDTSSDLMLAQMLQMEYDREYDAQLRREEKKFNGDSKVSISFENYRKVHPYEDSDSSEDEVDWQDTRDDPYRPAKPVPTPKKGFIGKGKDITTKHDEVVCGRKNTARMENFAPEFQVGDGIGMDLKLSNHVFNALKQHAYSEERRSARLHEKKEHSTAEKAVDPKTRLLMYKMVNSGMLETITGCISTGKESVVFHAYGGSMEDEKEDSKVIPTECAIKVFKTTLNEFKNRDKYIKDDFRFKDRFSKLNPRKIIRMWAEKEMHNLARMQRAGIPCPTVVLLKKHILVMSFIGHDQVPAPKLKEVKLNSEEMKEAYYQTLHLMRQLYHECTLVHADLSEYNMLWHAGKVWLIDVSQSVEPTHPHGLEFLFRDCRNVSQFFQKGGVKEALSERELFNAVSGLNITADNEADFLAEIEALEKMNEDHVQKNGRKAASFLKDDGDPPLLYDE
Sequence of LTK (human) (P29376 whole entry, looked up): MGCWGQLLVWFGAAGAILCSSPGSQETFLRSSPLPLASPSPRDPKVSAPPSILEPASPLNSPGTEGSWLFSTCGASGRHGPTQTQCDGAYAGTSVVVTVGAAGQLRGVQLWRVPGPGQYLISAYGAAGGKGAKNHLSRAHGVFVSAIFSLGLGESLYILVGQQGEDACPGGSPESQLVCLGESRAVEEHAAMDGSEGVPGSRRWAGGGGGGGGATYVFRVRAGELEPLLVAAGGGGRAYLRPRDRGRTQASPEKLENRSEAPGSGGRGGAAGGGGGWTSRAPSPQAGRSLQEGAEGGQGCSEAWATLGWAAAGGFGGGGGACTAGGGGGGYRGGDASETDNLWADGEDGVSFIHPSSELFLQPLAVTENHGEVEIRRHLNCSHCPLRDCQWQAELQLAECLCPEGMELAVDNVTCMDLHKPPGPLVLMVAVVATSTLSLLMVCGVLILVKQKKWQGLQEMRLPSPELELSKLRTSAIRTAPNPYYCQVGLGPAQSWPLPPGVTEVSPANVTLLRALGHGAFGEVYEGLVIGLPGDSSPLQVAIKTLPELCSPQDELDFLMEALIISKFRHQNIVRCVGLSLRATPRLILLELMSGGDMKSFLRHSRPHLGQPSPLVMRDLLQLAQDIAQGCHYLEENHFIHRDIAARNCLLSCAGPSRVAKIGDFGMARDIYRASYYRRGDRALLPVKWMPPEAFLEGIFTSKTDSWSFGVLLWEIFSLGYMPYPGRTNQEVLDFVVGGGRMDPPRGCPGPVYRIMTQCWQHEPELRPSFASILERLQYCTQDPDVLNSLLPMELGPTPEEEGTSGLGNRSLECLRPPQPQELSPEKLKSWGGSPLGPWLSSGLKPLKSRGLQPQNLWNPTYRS
Sequence of MKNK1 (human) (Q9BUB5 whole entry, looked up): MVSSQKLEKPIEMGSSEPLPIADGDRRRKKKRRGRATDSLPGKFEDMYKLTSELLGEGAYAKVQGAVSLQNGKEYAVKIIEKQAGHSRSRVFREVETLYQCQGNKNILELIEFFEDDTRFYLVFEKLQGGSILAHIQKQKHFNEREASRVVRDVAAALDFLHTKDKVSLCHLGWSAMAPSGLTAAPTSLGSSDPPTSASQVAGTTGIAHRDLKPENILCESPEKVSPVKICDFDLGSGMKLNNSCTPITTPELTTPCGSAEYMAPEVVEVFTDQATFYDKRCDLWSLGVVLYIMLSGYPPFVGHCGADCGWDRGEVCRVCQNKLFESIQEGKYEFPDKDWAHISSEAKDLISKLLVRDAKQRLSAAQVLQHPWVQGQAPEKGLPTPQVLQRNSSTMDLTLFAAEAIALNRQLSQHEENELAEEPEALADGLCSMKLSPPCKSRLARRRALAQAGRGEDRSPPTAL
Sequence of RPS6KB1 (human) (P23443 whole entry, looked up): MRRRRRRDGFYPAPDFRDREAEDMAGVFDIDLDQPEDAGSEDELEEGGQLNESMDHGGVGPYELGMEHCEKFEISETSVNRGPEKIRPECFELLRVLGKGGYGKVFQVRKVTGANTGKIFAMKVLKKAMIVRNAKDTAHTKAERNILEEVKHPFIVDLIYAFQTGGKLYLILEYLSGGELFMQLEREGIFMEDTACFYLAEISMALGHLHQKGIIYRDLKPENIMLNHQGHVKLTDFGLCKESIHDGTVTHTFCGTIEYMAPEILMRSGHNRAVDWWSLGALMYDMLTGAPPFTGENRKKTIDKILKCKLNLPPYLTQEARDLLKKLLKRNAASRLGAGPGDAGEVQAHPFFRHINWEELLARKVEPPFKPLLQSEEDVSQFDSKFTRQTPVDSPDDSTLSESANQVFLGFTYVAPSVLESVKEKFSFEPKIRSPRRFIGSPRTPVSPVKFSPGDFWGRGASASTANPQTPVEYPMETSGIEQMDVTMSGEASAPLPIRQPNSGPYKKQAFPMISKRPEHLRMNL
Sequence of CDK7 (human) (P50613 whole entry, looked up): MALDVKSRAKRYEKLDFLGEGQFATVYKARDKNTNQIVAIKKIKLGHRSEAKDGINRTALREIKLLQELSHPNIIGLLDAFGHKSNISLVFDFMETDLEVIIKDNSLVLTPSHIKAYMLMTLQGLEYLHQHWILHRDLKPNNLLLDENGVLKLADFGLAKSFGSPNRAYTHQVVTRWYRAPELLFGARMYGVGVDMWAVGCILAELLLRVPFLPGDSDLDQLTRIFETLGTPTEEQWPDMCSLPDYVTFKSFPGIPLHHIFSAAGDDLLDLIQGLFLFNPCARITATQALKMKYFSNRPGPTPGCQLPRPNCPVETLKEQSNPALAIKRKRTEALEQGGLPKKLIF
Sequence of PRPF4B (human) (Q13523 whole entry, looked up): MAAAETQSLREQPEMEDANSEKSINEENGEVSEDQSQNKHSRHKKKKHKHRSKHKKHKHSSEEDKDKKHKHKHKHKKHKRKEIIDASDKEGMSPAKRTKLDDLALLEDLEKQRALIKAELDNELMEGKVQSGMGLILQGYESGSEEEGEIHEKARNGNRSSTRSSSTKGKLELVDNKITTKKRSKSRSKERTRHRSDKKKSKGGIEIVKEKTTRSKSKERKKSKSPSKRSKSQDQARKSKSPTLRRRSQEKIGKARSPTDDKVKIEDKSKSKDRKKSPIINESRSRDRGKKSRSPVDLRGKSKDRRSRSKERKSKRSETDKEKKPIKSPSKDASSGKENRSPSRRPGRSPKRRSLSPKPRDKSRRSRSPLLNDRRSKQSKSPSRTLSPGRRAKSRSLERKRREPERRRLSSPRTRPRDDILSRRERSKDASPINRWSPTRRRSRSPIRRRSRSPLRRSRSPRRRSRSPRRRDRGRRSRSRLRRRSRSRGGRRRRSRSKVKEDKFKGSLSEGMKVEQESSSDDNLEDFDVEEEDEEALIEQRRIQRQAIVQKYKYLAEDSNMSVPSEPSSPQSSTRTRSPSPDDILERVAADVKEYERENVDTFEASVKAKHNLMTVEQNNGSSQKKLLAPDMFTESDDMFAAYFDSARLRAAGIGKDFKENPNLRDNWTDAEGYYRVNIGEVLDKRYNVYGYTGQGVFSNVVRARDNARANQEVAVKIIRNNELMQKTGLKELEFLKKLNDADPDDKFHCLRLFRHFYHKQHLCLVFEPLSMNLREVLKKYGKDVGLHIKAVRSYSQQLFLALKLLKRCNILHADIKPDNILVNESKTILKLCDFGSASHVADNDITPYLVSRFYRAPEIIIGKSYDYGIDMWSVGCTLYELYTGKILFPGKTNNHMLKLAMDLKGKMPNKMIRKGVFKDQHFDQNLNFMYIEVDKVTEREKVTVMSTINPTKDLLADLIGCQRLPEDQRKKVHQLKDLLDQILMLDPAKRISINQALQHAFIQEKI
Sequence of CDK3 (human) (Q00526 whole entry, looked up): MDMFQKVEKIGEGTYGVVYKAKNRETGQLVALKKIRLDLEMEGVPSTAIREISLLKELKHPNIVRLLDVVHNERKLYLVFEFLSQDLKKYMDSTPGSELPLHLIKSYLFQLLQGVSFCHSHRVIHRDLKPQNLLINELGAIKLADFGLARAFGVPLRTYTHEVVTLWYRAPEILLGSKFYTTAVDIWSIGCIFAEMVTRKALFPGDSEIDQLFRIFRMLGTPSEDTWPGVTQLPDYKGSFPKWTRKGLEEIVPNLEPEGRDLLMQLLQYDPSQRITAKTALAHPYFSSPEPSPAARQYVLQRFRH

Compound: CNC(=O)Nc1ccc(-c2nc(N3CC4CCC(C3)O4)c3cnn(C4CCC5(CC4)OCCO5)c3n2)cc1
- kinase still bound, per cent of control (ACVRL1 (human)): 100%
- kinase still bound, per cent of control (CDK3 (human)): 99%
- kinase still bound, per cent of control (PRPF4B (human)): 70%
- kinase still bound, per cent of control (NUAK2 (human)): 100%
- kinase still bound, per cent of control (LTK (human)): 68%
- kinase still bound, per cent of control (ULK3 (human)): 92%
- kinase still bound, per cent of control (NLK (human)): 85%
- kinase still bound, per cent of control (CDC42BPB (human)): 100%
- kinase still bound, per cent of control (PRKACA (human)): 75%
- kinase still bound, per cent of control (LYN (human)): 85%
- kinase still bound, per cent of control (MAP4K3 (human)): 94%
- kinase still bound, per cent of control (ITK (human)): 88%
- kinase still bound, per cent of control (RPS6KA1 KD1 (human)): 100%
- kinase still bound, per cent of control (EGFR (human)): 62%
- kinase still bound, per cent of control (MET (human)): 93%
- kinase still bound, per cent of control (DYRK2 (human)): 90%
- kinase still bound, per cent of control (MARK2 (human)): 100%
- kinase still bound, per cent of control (MKNK1 (human)): 100%
- kinase still bound, per cent of control (NEK7 (human)): 100%
- kinase still bound, per cent of control (MAPK9 (human)): 85%
- kinase still bound, per cent of control (RIOK3 (human)): 100%
- kinase still bound, per cent of control (MAPKAPK2 (human)): 82%
- kinase still bound, per cent of control (BTK (human)): 90%
- kinase still bound, per cent of control (HIPK1 (human)): 100%
- kinase still bound, per cent of control (CDK8 (human)): 100%
- kinase still bound, per cent of control [1]: 100%
- kinase still bound, per cent of control (GAK (human)): 75%
- kinase still bound, per cent of control (FGFR3 (human)): 83%
- kinase still bound, per cent of control (CASK (human)): 64%
- kinase still bound, per cent of control (PIP4K2B (human)): 100%
- kinase still bound, per cent of control (ERN1 (human)): 93%
- kinase still bound, per cent of control (CDK7 (human)): 88%
- kinase still bound, per cent of control (BRSK2 (human)): 100%
- kinase still bound, per cent of control (PIM1 (human)): 100%
- kinase still bound, per cent of control (FYN (human)): 70%
- kinase still bound, per cent of control (BMPR1A (human)): 93%
- kinase still bound, per cent of control (KIT (human)): 91% and 93%
- kinase still bound, per cent of control (EPHA6 (human)): 98%
- kinase still bound, per cent of control (RPS6KB1 (human)): 100%
- kinase still bound, per cent of control (DDR1 (human)): 66%
